Laboratory results reported in US5707966A, “Antithrombotic agents” (Eli Lilly and Company, priority 1995, dated 1998).
Counter-ions that a name gives are not always drawn. Like-named read-outs stand apart in the source and are kept apart here.

What was measured:
[1] = target: T1, Bovine trypsin (Bos taurus, UniProt P00760); test: Kass with trypsin, chromogenic substrate; type: biochemical
T1 construct: Bovine trypsin is purchased; purchased Worthington Biochemicals, Freehold, N.J
T1 sequence (P00760 24-246): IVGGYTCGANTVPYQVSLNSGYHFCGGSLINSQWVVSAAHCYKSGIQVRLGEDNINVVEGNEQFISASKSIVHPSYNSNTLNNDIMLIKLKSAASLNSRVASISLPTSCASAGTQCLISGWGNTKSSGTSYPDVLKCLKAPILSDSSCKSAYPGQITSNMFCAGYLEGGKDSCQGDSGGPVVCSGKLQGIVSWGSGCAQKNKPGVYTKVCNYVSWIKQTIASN

[2] = target: T2, factor Xa (Homo sapiens, UniProt P00742); test: Kass with factor Xa, chromogenic substrate; type: biochemical
T2 construct: Human factors X, Xa, IXa, XIa, and XIIa are purchased; purchased Enzyme Research Laboratories, South Bend, Ind
T2 sequence (P00742 235-488 limits assumed): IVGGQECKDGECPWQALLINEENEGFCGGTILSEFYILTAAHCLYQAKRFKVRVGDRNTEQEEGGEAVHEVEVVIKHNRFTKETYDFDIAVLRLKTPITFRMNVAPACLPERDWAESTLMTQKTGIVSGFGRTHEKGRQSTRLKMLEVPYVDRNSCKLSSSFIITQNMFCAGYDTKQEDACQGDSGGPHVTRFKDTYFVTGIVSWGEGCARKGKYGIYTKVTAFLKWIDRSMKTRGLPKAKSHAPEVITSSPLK
T2 sequence (P00742 41-179 partner limits assumed): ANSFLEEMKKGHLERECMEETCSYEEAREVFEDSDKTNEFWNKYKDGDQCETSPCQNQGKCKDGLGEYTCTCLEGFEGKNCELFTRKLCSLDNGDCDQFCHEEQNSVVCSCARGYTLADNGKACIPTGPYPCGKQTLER

[3] = target: T3, t-PA (Homo sapiens, UniProt P00750); test: Kass with t-PA, chromogenic substrate; type: biochemical; conditions: substrate H-D-Ile-Pro-Arg-p-nitroanilide
T3 construct: purchased American Diagnostica, Greenwich, Conn
T3 sequence (P00750 36-562): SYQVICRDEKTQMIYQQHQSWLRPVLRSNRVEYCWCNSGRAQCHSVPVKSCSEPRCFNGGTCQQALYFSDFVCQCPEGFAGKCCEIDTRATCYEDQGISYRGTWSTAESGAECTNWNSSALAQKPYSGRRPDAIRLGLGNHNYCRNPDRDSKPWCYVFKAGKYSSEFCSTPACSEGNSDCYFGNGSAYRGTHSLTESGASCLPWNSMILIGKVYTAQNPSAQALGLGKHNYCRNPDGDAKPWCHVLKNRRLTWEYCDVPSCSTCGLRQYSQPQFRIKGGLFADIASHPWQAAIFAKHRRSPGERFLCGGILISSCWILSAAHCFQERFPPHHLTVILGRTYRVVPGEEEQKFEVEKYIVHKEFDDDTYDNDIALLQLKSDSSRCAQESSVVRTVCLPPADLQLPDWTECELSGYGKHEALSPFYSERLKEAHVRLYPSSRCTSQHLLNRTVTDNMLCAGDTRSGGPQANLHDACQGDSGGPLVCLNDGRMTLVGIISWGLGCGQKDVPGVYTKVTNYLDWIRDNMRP

[4] = Index of bioavailability (% Relative Activity, plasma TT AUC oral vs i.v.); type: in vivo; conditions: dose-adjusted AUC of plasma TT, p.o. vs i.v. bolus
Protocol: Parke Davis) at 37° C. […] Assays are done in duplicate and averaged. […] Each sample population represented alternating sequential time points.

[5] = target: T4, Human plasmin (Homo sapiens, UniProt P00747); test: Kass with plasmin, chromogenic substrate; type: biochemical
T4 construct: Human plasmin is purchased; purchased Boehringer Mannheim, Indianapolis, Ind
T4 sequence (P00747 97-810): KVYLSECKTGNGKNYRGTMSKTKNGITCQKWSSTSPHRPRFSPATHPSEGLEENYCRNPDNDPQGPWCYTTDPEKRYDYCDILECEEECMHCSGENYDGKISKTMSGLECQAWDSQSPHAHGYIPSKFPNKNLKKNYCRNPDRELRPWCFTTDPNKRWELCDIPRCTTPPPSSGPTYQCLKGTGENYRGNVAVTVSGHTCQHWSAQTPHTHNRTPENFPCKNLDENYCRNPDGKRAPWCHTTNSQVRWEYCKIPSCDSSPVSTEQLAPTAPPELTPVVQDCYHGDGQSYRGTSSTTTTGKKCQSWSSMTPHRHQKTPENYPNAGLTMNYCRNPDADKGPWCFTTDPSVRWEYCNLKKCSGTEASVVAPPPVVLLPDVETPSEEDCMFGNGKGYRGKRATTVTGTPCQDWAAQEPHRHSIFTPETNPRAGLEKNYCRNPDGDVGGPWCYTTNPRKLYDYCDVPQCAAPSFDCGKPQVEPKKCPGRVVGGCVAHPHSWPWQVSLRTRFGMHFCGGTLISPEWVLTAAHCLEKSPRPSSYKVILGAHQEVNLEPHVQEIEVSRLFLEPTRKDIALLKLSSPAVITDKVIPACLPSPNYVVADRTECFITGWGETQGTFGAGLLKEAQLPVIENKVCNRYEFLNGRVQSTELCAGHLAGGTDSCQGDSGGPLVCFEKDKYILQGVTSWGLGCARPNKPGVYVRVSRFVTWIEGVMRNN
T4 sequence (P00747 97-580 partner limits assumed): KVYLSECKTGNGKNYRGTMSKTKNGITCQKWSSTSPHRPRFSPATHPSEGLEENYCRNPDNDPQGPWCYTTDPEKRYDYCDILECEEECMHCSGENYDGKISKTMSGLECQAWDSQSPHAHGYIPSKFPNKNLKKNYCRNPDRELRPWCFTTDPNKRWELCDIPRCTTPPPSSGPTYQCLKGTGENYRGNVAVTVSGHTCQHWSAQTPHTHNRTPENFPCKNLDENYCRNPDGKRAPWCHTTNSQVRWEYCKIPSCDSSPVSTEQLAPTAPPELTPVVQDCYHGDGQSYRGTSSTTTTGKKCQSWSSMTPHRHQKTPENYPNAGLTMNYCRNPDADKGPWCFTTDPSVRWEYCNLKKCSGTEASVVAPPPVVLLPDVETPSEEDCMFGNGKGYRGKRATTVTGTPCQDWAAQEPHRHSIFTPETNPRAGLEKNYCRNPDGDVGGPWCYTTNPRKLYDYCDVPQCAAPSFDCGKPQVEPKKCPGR

[6] = target: Human Thrombin (Homo sapiens, UniProt P00734); test: Inhibition of amidase activity of thrombin (Kass); type: biochemical
[7] = system: Human plasma; test: Human plasma anticoagulation, thrombin time (TT); type: biochemical; conditions: concentration required to double the thrombin time, linear extrapolation
Outline: (§1)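 Citrated human plasma + cpd (broad conc. range); instrument clot timing. PT: saline/Thromboplastin-C. APTT: Actin 120 s, then CaCl2 0.02M. TT: saline/bovine thrombin 10 NIH units/mL. Value = conc. doubling clotting time, linear extrapolation.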

[8] = system: Human plasma; test: Human plasma anticoagulation, activated partial thromboplastin time (APTT); type: biochemical; conditions: concentration required to double the APTT, linear extrapolation
Outline: as §1

[9] = system: Human plasma; test: Human plasma anticoagulation, prothrombin time (PT); type: biochemical; conditions: concentration required to double the PT, linear extrapolation
Outline: as §1

[10] = substrate N-Benzoyl-Phe-Val-Arg-p-nitroanilide
[11] = substrate N-Benzoyl-Ile-Glu-Gly-Arg-p-nitroanilide
[12] = substrate H-D-Val-Leu-Lys-p-nitroanilide
[13] = mean over a range of concentrations, […]

Compound | Kass Trypsin [1] | Kass Xa [2] | Kass t-PA [3] | % oral/i.v. activity (Rat) [4] | Kass Plasmin [5] | Kass Human Thrombin [6] | Human Plasma Anticoagulation 2× Clotting time TT [7] | Kass Trypsin [1, 10] | Kass Xa [2, 11] | Human Plasma Anticoagulation 2× Clotting time APTT [8] | Kass Plasmin [5, 12] | Kass Human Thrombin [6, 13] | Human Plasma Anticoagulation 2× Clotting time PT [9]
CCS(=O)(=O)N[C@H](Cc1ccccc1)C(=O)N1CCC[C@H]1C(=O)NCCCCNC(=N)N [Example 1, EtSO2 -D-Phe-Pro-Agm.HCl] | 0.38 | 0.0017 | 0.082 × 10^6 (L/mole) | 8% | 0.010 | 3.3 | 250 ng/mL | – | – | – | – | – | –
N=C(N)c1cccc(CCNC(=O)[C@@H]2CCCN2C(=O)[C@@H]2NCC[C@@H]3CCCC[C@@H]32)c1 [Example 29, 1-Piq-Pro-m-NHCH2 CH2 --C6 H4 C(=NH)NH2.2HCl] | – | – | < 0.001 × 10^6 (L/mole) | – | – | – | 750 ng/mL | 0.02 × 10^6 (L/mole) | 0.02 × 10^6 (L/mole) | 9,800 ng/mL | < 0.001 × 10^6 (L/mole) | 0.76 × 10^6 (L/mole) | 15,800 ng/mL
CCS(=O)(=O)N[C@H](Cc1ccccc1)C(=O)N1CCC[C@H]1C(=O)NCCCc1cccc(C(=N)N)c1 [Example 31, EtSO2 -D-Phe-Pro-m-NHCH2 CH2 CH2 --C6 H4 C(=NH)NH2.HCl] | – | – | < 0.001 × 10^6 (L/mole) | – | – | – | 10,800 ng/mL | 0.05 × 10^6 (L/mole) | 0.14 × 10^6 (L/mole) | 34,500 ng/mL | < 0.001 × 10^6 (L/mole) | 0.07 × 10^6 (L/mole) | 30,000 ng/mL
CCS(=O)(=O)N[C@H](Cc1ccccc1)C(=O)N1CCC[C@H]1C(=O)NCCc1ccc(NC(=N)N)cc1 [Example 35, EtSO2 -D-Phe-Pro-p-NHCH2 CH2 C6 H4 CNH(NH)NH2.HCl] | – | – | < 0.001 × 10^6 (L/mole) | – | – | – | 4,500 ng/mL | 0.04 × 10^6 (L/mole) | < 0.001 × 10^6 (L/mole) | 50,400 ng/mL | < 0.001 × 10^6 (L/mole) | 0.09 × 10^6 (L/mole) | 78,400 ng/mL
CCS(=O)(=O)N[C@H](Cc1ccccc1)C(=O)N1CCC[C@H]1C(=O)NCCc1cccc(C(=N)N)c1 [Example 27, EtSO2 -D-Phe-Pro-m-NHCH2 CH2 --C6 H4 C(=NH)NH2.HCl] | – | – | 0.02 × 10^6 (L/mole) | – | – | – | 1,940 ng/mL | 0.02 × 10^6 (L/mole) | 0.02 × 10^6 (L/mole) | 27,800 ng/mL | < 0.001 × 10^6 (L/mole) | 0.29 × 10^6 (L/mole) | 27,000 ng/mL
O=C(O)CN[C@H](CC1CCCCC1)C(=O)N1CCC[C@H]1C(=O)NCCC1=CCNCC1 [Example 59, HO2 CCH2 -D-Cha-Pro-4-NHCH2 CH2 -3,4-dehydro-piperidine.HCl] | – | – | < 0.001 × 10^6 (L/mole) | – | – | – | 420 ng/mL | 0.21 × 10^6 (L/mole) | < 0.001 × 10^6 (L/mole) | 5,500 ng/mL | < 0.001 × 10^6 (L/mole) | 1.10 × 10^6 (L/mole) | 7,000 ng/mL
N=C(N)c1ccc(CNC(=O)[C@@H]2CCCN2C(=O)[C@@H](CC2CCCCC2)NCC(=O)O)cc1 [Example 48, HOOCCH2 -D-Cha-Pro-p-NHCH2 C6 H4 C(NH)NH2.HCl] | – | – | 0.05 × 10^6 (L/mole) | – | – | – | 2 ng/mL | 250 × 10^6 (L/mole) | 5.5 × 10^6 (L/mole) | 33 ng/mL | 0.43 × 10^6 (L/mole) | 4,100 × 10^6 (L/mole) | 59 ng/mL
N=C(N)c1ccc(CNC(=O)[C@@H]2C[C@@H]3CCCC[C@@H]3N2C(=O)[C@@H](CC2CCCCC2)NCC(=O)O)cc1 (relative stereo) [Example 49, HOOCCH2 -D-Cha-cis-Ohi-p-NHCH2 C6 H4 C(NH)NH2.HCl] | – | – | 0.04 × 10^6 (L/mole) | – | – | 400 | 5 ng/mL | 940 × 10^6 (L/mole) | 3.4 × 10^6 (L/mole) | 130 ng/mL | 0.84 × 10^6 (L/mole) | – | 130 ng/mL
